The values below come from US8546482B2, “Low odor compositions and low odor coating compositions” (Rohm and Haas Company, priority 2009, dated 2013).

What all share (format): biochemical
One assay addresses T1, CALBL (Moesziomyces antarcticus, UniProt P41365).
T1 construct: purchased Novozymes, Bagsvaerd, Denmark Novozym CALB L
T1 sequence (P41365 26-342): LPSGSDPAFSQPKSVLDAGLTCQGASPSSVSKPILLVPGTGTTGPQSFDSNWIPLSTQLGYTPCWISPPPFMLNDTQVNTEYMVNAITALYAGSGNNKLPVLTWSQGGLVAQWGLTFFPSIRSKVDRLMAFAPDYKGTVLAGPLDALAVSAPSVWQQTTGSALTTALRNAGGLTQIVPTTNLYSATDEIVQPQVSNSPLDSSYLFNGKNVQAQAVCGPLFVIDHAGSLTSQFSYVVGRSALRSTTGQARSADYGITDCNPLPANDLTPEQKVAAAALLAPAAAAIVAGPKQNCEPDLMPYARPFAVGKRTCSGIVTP
The assay is described as follows: Small molecule inhibitors, EA content of latex containing CALBL. Also noted: EA content (column not headed): unit not given here. Particulars: for Inhibition of the carboxylesterase enzyme (in words): CALBL 60 ppm, inhibitor 1.0%; for Effect of low inhibitor levels on enzyme activity (in words) / EA content (column not headed): CALBL 6 ppm; for Effect of low inhibitor levels on enzyme activity (in words): inhibitor as low as 0.01% or even 0.001% (solid on wet latex); for EA content (column not headed): latex. As for the experimental part:
(§1) In another embodiment, deactivation of the carboxylesterase enzyme may be achieved by the addition of a small molecule inhibitor, as shown for CALBL and N51032 in Tables 13 and 14, below. […] The small molecule inhibitor and CALBL were added simultaneously at the time t=0. In the following tables, the potential small molecule inhibitors are as follows: • PBA—phenylboronic acid • S-1-DS—Sodium 1-decane-sulfonate • NPB—Neopentylboronic acid • 2MPB—(2-methylpropyl)boronic acid • CBA—cyclohexylboronic acid
(§2) Again, optimization of the level of use for PBA and 2MPB in the latex is explored below, in Tables 15 and 16, respectively, by the same procedure.

Assay [1] concerns N51032. The assay is described as follows: Small molecule inhibitors, EA content of latex containing N51032. The note with it: N51032 5 ppm; for Effect of low inhibitor levels on enzyme activity (in words): inhibitor as low as 0.01% or even 0.001% (solid on wet latex); for EA content (column not headed): latex.
In assay [2] the test system is N51032. Described as above. The note with it: N51032 50 ppm; inhibitor 1%. As to the method: as §1
The small molecule inhibitors are added at 1% by weight of solids on weight of wet latex (at the same time as the esterase).
as §2

Molecules are shown by their SMILES.

`CC(C)(C)CB(O)O` [NPB, Neopentylboronic acid]: the “Inhibition of the carboxylesterase enzyme (in words)” value (shortened to “Inhibition”) on CALBL is listed as “completely ineffective as an inhibitor”.
Take `OB(O)C1CCCCC1` [CBA, cyclohexylboronic acid]: the “Inhibition” value at CALBL is given as “some ability to inhibit the CALBL enzyme”.
Take `CC(C)CB(O)O` [Paint 2MPB, (2-methylpropyl)boronic acid]: the “Effect of low inhibitor levels on enzyme activity (in words)” value with N51032 [1] and on CALBL was “sufficient to shut off the enzyme activity” each time. For the same compound, the EA content (column not headed) in the assay with N51032 [1] (inhibitor 0.001%, 0 hr) is 42 ppm; in the assay with N51032 [1] (inhibitor 0.001%, 120 hr), 24 ppm; in the assay with N51032 [1] (inhibitor 0.001%, 168 hr), 22 ppm; with N51032 [1] (inhibitor 0.001%, 384 hr), 8 ppm; in the assay on N51032 [1] (inhibitor 0.001%, 480 hr), 6 ppm; with N51032 [1] (inhibitor 0.01%, 0 hr) it was 37 ppm. Further, the EA content (column not headed) in the assay with N51032 [1] (inhibitor 0.01%, 120 hr) was determined as 25 ppm; in the assay on N51032 [1] (inhibitor 0.01%, 168 hr) it was 19 ppm; with N51032 [1] (inhibitor 0.01%, 384 hr) it was 6 ppm; in the assay with N51032 [1] (inhibitor 0.01%, 480 hr), 5 ppm; in the assay with N51032 [1] (inhibitor 0.1%, 0 hr) it was 43 ppm; with N51032 [1] (inhibitor 0.1%, 120 hr), 34 ppm. The EA content (column not headed) with N51032 [1] (inhibitor 0.1%, 168 hr) was 27 ppm; in the assay with N51032 [1] (inhibitor 0.1%, 384 hr), 22 ppm; in the assay with N51032 [1] (inhibitor 0.1%, 480 hr), 20 ppm; at CALBL (inhibitor 0.001%, 0 hr), 44; at CALBL (inhibitor 0.001%, 120 hr), 32; on CALBL (inhibitor 0.001%, 168 hr), 23. Besides, the “EA content (column not headed)” value stood at 10 at CALBL (inhibitor 0.001%, 384 hr); 8 on CALBL (inhibitor 0.001%, 480 hr); 43 at CALBL (inhibitor 0.01%, 0 hr); 28 on CALBL (inhibitor 0.01%, 120 hr); 24 at CALBL (inhibitor 0.01%, 168 hr); 13 on CALBL (inhibitor 0.01%, 384 hr). The “EA content (column not headed)” value on CALBL (inhibitor 0.01%, 480 hr) is on record as 11; at CALBL (inhibitor 0.1%, 0 hr), 43; on CALBL (inhibitor 0.1%, 120 hr), 34; at CALBL (inhibitor 0.1%, 168 hr), 25; on CALBL (inhibitor 0.1%, 384 hr), 15; at CALBL (inhibitor 0.1%, 480 hr), 13. Also, the “Inhibition” value on CALBL is on record as “effective in inhibiting the carboxylesterase enzyme”.
As to `OB(O)c1ccccc1` [PBA, phenylboronic acid], the “Effect of low inhibitor levels on enzyme activity (in words)” value with N51032 [1] and at CALBL was “sufficient to shut off the enzyme activity” in each case. Also, the EA content (column not headed) was determined as 46 ppm in the assay with N51032 [1] (inhibitor 0.001%, 0 hr); 36 ppm in the assay on N51032 [1] (inhibitor 0.001%, 120 hr); 34 ppm in the assay on N51032 [1] (inhibitor 0.001%, 168 hr); 22 ppm with N51032 [1] (inhibitor 0.001%, 384 hr); 19 ppm in the assay with N51032 [1] (inhibitor 0.001%, 480 hr); 45 ppm with N51032 [1] (inhibitor 0.01%, 0 hr). Further, the EA content (column not headed) in the assay on N51032 [1] (inhibitor 0.01%, 120 hr) came to 41 ppm; in the assay on N51032 [1] (inhibitor 0.01%, 168 hr) it was 39 ppm; in the assay on N51032 [1] (inhibitor 0.01%, 384 hr) it was 34 ppm; in the assay with N51032 [1] (inhibitor 0.01%, 480 hr), 34 ppm; in the assay with N51032 [1] (inhibitor 0.1%, 0 hr) it was 46 ppm; in the assay with N51032 [1] (inhibitor 0.1%, 120 hr) it was 34 ppm. The EA content (column not headed) was 41 ppm in the assay with N51032 [1] (inhibitor 0.1%, 168 hr); 38 ppm in the assay on N51032 [1] (inhibitor 0.1%, 384 hr); 39 ppm with N51032 [1] (inhibitor 0.1%, 480 hr); 48 on CALBL (inhibitor 0.001%, 0 hr); 30 on CALBL (inhibitor 0.001%, 120 hr); 25 on CALBL (inhibitor 0.001%, 168 hr). Also, the “EA content (column not headed)” value came to 11 on CALBL (inhibitor 0.001%, 384 hr); 9 at CALBL (inhibitor 0.001%, 480 hr); 44 at CALBL (inhibitor 0.01%, 0 hr); 32 on CALBL (inhibitor 0.01%, 120 hr); 26 at CALBL (inhibitor 0.01%, 168 hr); 15 on CALBL (inhibitor 0.01%, 384 hr). Also, the “EA content (column not headed)” value on CALBL (inhibitor 0.01%, 480 hr) was 15; at CALBL (inhibitor 0.1%, 0 hr), 39; at CALBL (inhibitor 0.1%, 120 hr) it was 35; at CALBL (inhibitor 0.1%, 168 hr) it was 35; on CALBL (inhibitor 0.1%, 384 hr), 29; on CALBL (inhibitor 0.1%, 480 hr), 29. For the same compound, the “Inhibition” value with N51032 [2] and at CALBL was “effective in inhibiting the carboxylesterase enzyme” throughout.
For `CCCCCCCCCCS(=O)(=O)[O-].[Na+]` [Paint S-1-DS, Sodium 1-decane-sulfonate], on CALBL, the “Inhibition” value is “some ability to inhibit the CALBL enzyme”.
